We go through seven compounds from US20010044151A1, “Ligands for modulating the expression of exogenous genes via an ecdysone receptor complex” (priority 1998, published 2001).

The experiment addresses T1, ecdysteroid receptor complex in Plodia interpunctella (IAL-PID2) nuclear extract (Plodia interpunctella, UniProt Q6RVD3).
T1 sequence (Q6RVD3 1-541): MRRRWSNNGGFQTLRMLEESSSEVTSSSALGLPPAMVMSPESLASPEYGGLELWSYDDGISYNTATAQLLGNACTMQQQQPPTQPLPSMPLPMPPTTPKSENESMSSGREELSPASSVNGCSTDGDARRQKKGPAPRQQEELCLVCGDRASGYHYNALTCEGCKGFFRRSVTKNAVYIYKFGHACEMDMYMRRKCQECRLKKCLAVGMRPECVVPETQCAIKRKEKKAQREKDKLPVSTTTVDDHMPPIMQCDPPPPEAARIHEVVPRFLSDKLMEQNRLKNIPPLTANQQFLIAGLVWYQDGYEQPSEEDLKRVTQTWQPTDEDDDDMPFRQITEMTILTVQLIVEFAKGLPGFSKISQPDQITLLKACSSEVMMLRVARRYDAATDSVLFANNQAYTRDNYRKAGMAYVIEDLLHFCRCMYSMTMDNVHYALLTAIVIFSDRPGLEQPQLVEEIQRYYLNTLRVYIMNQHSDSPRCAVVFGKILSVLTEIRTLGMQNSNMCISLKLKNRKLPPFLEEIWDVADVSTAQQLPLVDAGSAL
T1 sequence (Q6IVK1 1-415 partner): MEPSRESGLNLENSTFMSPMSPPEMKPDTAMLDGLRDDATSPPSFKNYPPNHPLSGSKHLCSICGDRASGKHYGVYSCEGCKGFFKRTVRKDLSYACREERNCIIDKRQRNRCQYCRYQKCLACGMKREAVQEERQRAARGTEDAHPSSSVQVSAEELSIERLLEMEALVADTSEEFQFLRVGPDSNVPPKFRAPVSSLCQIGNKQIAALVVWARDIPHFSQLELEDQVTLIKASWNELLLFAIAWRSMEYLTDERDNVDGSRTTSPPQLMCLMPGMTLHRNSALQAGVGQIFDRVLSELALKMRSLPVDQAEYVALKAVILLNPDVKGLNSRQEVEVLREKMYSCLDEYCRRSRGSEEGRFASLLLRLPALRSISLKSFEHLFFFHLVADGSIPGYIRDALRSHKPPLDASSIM
The experiment is described as follows: Competitive 3H-ponasterone A binding assay, Plodia nuclear ecdysone receptor extract. As to conditions: 3H-ponasterone A displacement. As for the experimental part: The cell line IAL-PID2, derived from imaginal wing discs of the lepidopteran Plodia interpunctella was obtained from H. Oberlander and maintained as described (Lynn, E. E. and Oberlander, H., (1983), J. Insect Physiology, 29, 591-96). A 300 ml stationary phase culture of P. interpunctella cells was centrifuged at 700×g for 10 mm at room temperature to pellet the cells. The supernatant was aspirated and the cellular pellet resuspended in 35 ml TMT (TM buffer with 0.1% Triton X-100). The suspension was homogenized with twenty up and down strokes of a Dounce homogenizer on ice. Homogenate was incubated on ice for 10 minutes and then centrifuged for 15 min at 900×g. The pellet was resuspenced in 15 ml TM buffer and centrifuged at 2,300×g. This pellet was extracted in TMK buffer (TM buffer with 800 mM KCl) by using a glass rod to crush the pellet until a gelatinous slurry was formed and incubated on ice for 15 minutes. The extract was centrifuged at 100,000×g in a swinging bucket rotor for 60 minutes. The supernatant, which constituted the nuclear extract, was desalted on a 10 DG desalting column (Bio-Rad, 732-2010) equilibrated with T-buffer. The total protein concentration in the nuclear extract was adjusted to 5 mg per ml with T-buffer containing 1 mM DTT.
^3H ponasterone A, a potent phytoecdysteroid, (66,000 dpm; specific activity 170 Ci/mmole; NEN Life Science Products, Boston, Mass.) was mixed with 100 μl Kc cytosolic or Plodia nuclear ecdysone receptor extracts in […] glass test tubes in the absence or presence of 10 μM unlabelled 20-hydroxyecdysone (20E) to obtain an estimate of total or non-specific respectively, binding of tritiated ponasterone A. The tubes were vortexed and incubated overnight at 4° C. for Kc cytosolic extracts or 1.5 hours for Plodia nuclear extracts for binding reactions to reach equilibrium. At the end of equilibrium binding times, the bound tritiated ponasterone A was separated from the unbound by addition of ice-cold 600 μl or 300 μl dextran-coated charcoal solution (500 mg of Sigma HCL-washed activated charcoal, 50 mg Pharmacia Dextran T70, 50 ml T-buffer) to Kc or Plodia extracts, respectively. The tubes were vortexed briefly and centrifuged at 7,000×g to pellet the charcoal. The supernatant, 600 μl or 300 μl for Kc or Plodia extract reactions, respectively, containing tritiated ponasterone A bound to proteins, was aspirated into liquid scintillation vials containing 5 ml scintillation cocktail (ReadySafe®, Beckmann) each The mixture was vortexed and the amount of total or non-specifically bound radioactivity measured in a Beckmann LS500 liquid scinitllation counter with a 60% counting efficiency for tritium.
The concentrations of competitors that inhibited 50% of tritiated ponasterone A binding (IC50) was determined by incubating Kc or Plodia nuclear extracts or extracts of bacteria producing CfEcR(CDEF)-GST and CfUSP-GST fusions proteins with ^3H-ponasterone A (66,000 dpm per reaction) in the presence of a range of concentrations (0.1 nM to 10 μM) of test compounds. In the case of binding reactions using bacterial fusion proteins, 20 or one μl extract of bacteria producing CfEcR(CDEF)-GST or CfUSP-GST fusion proteins, respectively, were included per binding reaction. The assay conditions and determination of total and non-specific binding was as described above. The volume of competitor in solvent, like that for 20E or solvent alone, was kept at 1% of total reaction volume by using a 100 fold concentrated stock solution (i.e. a 100 fold dilution of stock solutions). The remainder of the assay was as described above. Each reaction was carried out in duplicate per concentration per test compound. Specific binding of ^3H-ponasterone A was determined by subtracting non-specific binding (that obtained in the presence of 10 μM 20E) from total (no competitor) or competed radioactivity bound. […]
Take `Cc1cc(C)cc(C(=O)N(NC(=O)c2ccc3c(c2C)OCCO3)C(C)(C)C)c1` [Ligand 2]: the “Plodia log(1/IC50)” value is 9.14. To `COc1cccc(C(=O)NN(C(=O)c2cc(C)cc(C)c2)C(C)(C)C)c1C` [Ligand 3] belongs 9.04; to `CCc1c(OC)cccc1C(=O)NN(C(=O)c1cc(C)cc(C)c1)C(C)(C)C` [Ligand 5], 9.49; to `CCc1c(OC)cccc1C(=O)NN(C(=O)c1cc(Cl)cc(Cl)c1)C(C)(C)C` [Ligand 13], 9.06. With `CCc1c(OC)cccc1C(=O)NN(C(=O)c1cc(F)cc(F)c1)C(C)(C)C` [Ligand 4] the figure was 8.51; with `CCc1c(OC)cccc1C(=O)NN(C(=O)c1cccc(OC)c1)C(C)(C)C` [Ligand 1], 8.52. As to `CCOc1cccc(C(=O)NN(C(=O)c2cc(C)cc(C)c2)C(C)(C)C)c1CC` [Ligand 12], the “Plodia log(1/IC50)” value turned out to be 9.63.
